Holding throughout (assay): Kinase selectivity profile (SelectScreen)
What all share (assay type): biochemical
Conditions in all cases: remaining kinase activity at 1.0 μM

For one test, the target named is EphA5 (Homo sapiens, UniProt P54756). Here is the method:
(§1) Compound 15y was evaluated for their inhibitory activities against 31 kinases at a single concentration (1 µM). Two different assay platforms were available for profiling—activity and binding. The Z′-LYTE and Adapta kinase activity assays were used most extensively for profiling and a smaller subset of kinases might be profiled using the LanthaScreen Eu Kinase Binding Assays.

The target in a further test is PKA (Homo sapiens, UniProt P17612). As for the experimental part:
as §1

The target in another test is EphB4 (Homo sapiens, UniProt P54760). As for the experimental part: as §1
Another test addresses Rse (Homo sapiens, UniProt Q06418). Here is the method: as §1
Another test concerns the target CK1γ1 (Homo sapiens, UniProt Q9HCP0). Here is the method: as §1
The target of a further test is eEF-2K (Homo sapiens, UniProt O00418). As for the experimental part: as §1
The target in the next test is PI3K(p110b/p85a) (Homo sapiens, UniProt P42338). Here is the method:
as §1

In another test the target is PKBα (Homo sapiens, UniProt P31749). As for the experimental part:
as §1

A further test deals with PDGFRβ (Homo sapiens, UniProt P09619). As for the experimental part: as §1
In a further test the target is PI3K(p110a/p85a) (Homo sapiens, UniProt P42336). As for the experimental part: as §1

SMILES strings stand for the structures.

Chain of CK1γ1 (Q9HCP0 whole entry): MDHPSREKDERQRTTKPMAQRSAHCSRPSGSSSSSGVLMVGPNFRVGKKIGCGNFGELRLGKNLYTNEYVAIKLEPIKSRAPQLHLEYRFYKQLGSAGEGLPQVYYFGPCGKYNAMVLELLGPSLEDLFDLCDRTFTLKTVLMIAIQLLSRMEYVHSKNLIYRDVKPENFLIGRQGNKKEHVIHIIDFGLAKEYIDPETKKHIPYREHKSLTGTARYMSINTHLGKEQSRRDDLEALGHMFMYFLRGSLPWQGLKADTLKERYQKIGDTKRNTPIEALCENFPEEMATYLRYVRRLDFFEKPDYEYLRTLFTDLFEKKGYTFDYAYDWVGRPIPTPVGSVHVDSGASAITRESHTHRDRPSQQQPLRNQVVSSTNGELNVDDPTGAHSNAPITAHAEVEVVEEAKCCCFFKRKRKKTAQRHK
Chain of PI3K(p110a/p85a) (P42336 whole entry): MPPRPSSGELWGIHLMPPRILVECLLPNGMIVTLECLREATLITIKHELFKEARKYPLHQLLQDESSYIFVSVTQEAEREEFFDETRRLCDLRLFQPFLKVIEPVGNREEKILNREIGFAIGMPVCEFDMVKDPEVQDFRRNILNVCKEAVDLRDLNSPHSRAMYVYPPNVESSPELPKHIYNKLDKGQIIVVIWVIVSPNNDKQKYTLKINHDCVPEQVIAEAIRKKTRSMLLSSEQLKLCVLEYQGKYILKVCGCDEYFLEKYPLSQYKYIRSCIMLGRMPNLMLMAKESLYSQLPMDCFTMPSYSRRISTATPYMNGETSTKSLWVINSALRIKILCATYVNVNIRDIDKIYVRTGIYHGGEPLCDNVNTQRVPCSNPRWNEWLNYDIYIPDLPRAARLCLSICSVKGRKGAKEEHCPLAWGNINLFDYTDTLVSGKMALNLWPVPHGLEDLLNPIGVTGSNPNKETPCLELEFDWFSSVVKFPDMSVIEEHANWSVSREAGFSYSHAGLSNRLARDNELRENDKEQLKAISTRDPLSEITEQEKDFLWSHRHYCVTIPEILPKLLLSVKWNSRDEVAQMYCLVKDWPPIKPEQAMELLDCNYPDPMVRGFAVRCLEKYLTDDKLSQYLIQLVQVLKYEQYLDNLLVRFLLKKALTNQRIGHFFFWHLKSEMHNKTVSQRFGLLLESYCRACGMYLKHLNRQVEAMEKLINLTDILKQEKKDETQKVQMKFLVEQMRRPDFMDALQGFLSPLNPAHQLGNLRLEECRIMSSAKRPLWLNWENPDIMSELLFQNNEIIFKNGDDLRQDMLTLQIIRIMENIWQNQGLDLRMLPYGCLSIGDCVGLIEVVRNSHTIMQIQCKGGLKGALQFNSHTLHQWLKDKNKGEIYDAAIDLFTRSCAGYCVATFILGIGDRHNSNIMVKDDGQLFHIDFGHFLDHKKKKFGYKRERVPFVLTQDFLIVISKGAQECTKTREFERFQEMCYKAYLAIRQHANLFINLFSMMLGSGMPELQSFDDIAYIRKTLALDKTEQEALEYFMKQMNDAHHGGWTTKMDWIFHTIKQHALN
Chain of PI3K(p110a/p85a) (P27986 whole entry partner): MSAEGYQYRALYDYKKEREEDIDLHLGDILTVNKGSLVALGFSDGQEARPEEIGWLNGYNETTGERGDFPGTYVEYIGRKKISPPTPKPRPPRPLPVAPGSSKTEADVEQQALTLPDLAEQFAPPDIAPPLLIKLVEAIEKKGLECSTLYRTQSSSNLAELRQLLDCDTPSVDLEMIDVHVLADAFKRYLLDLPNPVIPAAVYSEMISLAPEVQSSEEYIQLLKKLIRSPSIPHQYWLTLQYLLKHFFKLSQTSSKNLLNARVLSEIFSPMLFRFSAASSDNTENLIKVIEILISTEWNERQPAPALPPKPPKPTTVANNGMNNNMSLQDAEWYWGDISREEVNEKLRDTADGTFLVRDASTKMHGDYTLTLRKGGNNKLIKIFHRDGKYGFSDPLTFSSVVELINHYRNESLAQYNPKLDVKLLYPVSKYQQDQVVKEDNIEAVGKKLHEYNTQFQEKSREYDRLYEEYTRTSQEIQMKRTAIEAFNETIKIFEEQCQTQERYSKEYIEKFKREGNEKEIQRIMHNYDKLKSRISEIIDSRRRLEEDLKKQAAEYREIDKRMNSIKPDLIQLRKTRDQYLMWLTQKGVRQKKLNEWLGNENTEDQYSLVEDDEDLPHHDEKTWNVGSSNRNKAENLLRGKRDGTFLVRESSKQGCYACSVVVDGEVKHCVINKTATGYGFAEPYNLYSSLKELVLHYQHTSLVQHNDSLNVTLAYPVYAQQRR
Chain of PI3K(p110b/p85a) (P42338 whole entry): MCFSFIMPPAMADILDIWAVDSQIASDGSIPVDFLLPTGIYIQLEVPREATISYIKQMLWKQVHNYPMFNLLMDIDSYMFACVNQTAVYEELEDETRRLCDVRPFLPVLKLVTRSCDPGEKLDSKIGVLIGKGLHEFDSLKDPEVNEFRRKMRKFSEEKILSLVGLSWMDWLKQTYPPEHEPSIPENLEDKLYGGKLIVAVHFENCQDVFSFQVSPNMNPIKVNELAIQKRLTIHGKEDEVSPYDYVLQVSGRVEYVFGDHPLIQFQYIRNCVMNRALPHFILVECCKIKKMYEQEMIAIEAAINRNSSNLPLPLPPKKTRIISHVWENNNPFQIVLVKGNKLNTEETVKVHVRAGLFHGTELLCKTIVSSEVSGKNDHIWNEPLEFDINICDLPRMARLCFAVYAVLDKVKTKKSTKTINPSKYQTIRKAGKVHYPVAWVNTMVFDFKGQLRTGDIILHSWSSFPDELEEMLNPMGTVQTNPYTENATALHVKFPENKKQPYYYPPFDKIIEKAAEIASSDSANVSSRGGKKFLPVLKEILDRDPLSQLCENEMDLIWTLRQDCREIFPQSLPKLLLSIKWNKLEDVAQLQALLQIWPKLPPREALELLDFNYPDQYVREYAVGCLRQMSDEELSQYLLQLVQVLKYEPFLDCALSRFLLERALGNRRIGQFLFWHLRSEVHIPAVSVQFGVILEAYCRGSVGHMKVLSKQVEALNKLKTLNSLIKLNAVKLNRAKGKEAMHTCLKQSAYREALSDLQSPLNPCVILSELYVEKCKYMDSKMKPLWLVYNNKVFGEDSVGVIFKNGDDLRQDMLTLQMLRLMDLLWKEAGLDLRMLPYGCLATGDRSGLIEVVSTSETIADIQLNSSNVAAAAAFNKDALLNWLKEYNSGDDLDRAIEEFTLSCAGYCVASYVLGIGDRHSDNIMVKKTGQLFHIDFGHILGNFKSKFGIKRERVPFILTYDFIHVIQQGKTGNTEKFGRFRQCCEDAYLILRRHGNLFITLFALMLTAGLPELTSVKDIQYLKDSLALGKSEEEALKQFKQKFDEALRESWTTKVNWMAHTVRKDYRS
Chain of PI3K(p110b/p85a) (P27986 whole entry partner): as the sequence (P27986 whole entry partner) above
Chain of eEF-2K (O00418 whole entry): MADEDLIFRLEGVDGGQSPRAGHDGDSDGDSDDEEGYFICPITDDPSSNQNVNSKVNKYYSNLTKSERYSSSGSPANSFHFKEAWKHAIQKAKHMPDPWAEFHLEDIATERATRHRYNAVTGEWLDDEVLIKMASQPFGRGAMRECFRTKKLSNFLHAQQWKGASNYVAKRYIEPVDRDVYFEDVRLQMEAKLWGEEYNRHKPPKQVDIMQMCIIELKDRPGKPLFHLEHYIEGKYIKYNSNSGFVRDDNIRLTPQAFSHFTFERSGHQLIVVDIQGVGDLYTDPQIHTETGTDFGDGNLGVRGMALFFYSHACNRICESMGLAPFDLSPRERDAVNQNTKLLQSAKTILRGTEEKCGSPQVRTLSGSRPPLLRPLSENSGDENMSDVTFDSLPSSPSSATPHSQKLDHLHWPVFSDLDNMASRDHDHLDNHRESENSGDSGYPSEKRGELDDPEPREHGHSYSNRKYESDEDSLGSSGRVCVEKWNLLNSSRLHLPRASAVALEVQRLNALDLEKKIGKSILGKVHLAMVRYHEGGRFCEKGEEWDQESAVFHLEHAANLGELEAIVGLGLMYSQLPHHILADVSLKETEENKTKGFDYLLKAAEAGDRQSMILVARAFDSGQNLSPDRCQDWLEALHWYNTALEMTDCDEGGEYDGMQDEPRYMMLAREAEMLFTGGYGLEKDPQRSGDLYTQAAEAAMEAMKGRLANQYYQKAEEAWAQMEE
Chain of EphA5 (P54756 25-1037): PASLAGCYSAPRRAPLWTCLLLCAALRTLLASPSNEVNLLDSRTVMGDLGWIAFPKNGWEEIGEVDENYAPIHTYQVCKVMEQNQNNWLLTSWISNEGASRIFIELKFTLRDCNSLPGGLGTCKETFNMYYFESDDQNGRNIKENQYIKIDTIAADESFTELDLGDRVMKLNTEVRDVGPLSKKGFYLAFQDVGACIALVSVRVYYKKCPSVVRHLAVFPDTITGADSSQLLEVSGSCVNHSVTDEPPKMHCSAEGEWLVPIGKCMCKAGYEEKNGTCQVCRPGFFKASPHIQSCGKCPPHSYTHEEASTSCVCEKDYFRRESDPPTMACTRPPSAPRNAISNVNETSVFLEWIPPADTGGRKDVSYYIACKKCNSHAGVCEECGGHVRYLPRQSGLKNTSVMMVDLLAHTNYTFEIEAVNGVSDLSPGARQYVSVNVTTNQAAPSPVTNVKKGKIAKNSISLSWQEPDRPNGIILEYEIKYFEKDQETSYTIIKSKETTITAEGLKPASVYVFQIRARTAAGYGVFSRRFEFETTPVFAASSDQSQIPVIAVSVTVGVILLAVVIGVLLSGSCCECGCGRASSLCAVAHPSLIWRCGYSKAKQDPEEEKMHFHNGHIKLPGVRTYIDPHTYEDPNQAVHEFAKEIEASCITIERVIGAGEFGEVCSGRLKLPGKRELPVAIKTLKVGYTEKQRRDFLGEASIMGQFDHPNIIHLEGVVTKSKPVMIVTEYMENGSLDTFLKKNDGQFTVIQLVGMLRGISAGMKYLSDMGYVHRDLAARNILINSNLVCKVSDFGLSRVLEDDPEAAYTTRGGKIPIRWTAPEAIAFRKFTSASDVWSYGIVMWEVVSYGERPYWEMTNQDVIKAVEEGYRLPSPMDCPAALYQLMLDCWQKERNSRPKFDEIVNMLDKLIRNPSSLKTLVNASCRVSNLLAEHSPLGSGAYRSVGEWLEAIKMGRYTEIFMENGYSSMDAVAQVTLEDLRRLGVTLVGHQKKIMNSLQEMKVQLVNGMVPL

As to `Cc1nc2c(F)cc(-c3n[nH]c4ncc(-c5cccc(S(N)(=O)=O)c5)cc34)cc2n1C(C)C` [Compound 15y], at EphA5, the “%kinase activity @ 1.0 μM, EphA5” value worked out at 51%. In addition, the “%kinase activity @ 1.0 μM, PKA” value at PKA stood at 84%. At EphB4, the “%kinase activity @ 1.0 μM, EphB4” value came out at 77%. Moreover, the “%kinase activity @ 1.0 μM, Rse” value at Rse is 49%. Moreover, at CK1γ1, the “%kinase activity @ 1.0 μM, CK1γ1” value is given as 33%. Also, the “%kinase activity @ 1.0 μM, eEF-2K” value on eEF-2K came out at 108%. The “%kinase activity @ 1.0 μM, PI3K(p110b/p85a)” value at PI3K(p110b/p85a) is listed as 95%. For the same compound, the activity at 1 µM at PKBα came out at 111%. Also, at PDGFRβ, the “%kinase activity @ 1.0 μM, PDGFRβ” value was determined as 21%. The “%kinase activity @ 1.0 μM, PI3K(p110a/p85a)” value at PI3K(p110a/p85a) was 69%.

Source of the values: paper PMC9132415, “Identification of 1H-pyrazolo[3,4-b]pyridine derivatives as novel and potent TBK1 inhibitors: design, synthesis, biological evaluation, and molecular docking study” (Journal of Enzyme Inhibition and Medicinal Chemistry, 2022).
